In brackets after ≈: the same amount, converted by molar mass. Where two headings read alike, the source gives them in different places.
How the values were obtained:
Experiment in all cases: Antibacterial spectra, MIC by standard method of Japan Society of Chemotherapy
Assay type in all cases: cell-based
[1] = tested on: Bacillus subtilis PCI 219; conditions: 10^6 cells/ml; for ratio of activity per that of Ciprofloxacin (bracketed number): Gram +; for MIC: PCI219, Gram +, read-out: Minimum Inhibitory Concentration
[2] = tested on: Staphylococcus aureus 209 P; conditions: Gram +, 10^6 cells/ml; for MIC: read-out: Minimum Inhibitory Concentration
[3] = tested on: S. aureus IID 670 (Terajima); conditions: 10^6 cells/ml; for MIC: Staphylococcus aureus, IID670, Gram +, read-out: Minimum Inhibitory Concentration
[4] = tested on: S. epidermidis IID 866; conditions: 10^6 cells/ml; for ratio of activity per that of Ciprofloxacin (bracketed number): Gram +; for MIC: Staphylococcus epidermidis, IID866, Gram +, read-out: Minimum Inhibitory Concentration
[5] = tested on: Streptococcus pyogenes IID 692; conditions: 10^6 cells/ml; for ratio of activity per that of Ciprofloxacin (bracketed number): Gram +; for MIC: IID692, Gram +, read-out: Minimum Inhibitory Concentration
[6] = tested on: S. pyogenes IID 689 (S-8); conditions: 10^6 cells/ml
[7] = tested on: S. faecalis IID 682; conditions: 10^6 cells/ml; for MIC: Enterococcus faecalis, IID682, Gram +, read-out: Minimum Inhibitory Concentration; for ratio of activity per that of Ciprofloxacin (bracketed number): Gram +
[8] = tested on: S. pneumoniae 2054; conditions: Gram +, 10^6 cells/ml
[9] = tested on: E. coli NIHJ JC-2; conditions: E. coli NIHJ JC-2, Gram −, 10^6 cells/ml
[10] = tested on: E. coli ATCC 10536; conditions: 10^6 cells/ml; for MIC: Escherichia coli, ATCC10536, Gram −, read-out: Minimum Inhibitory Concentration; for ratio of activity per that of Ciprofloxacin (bracketed number): Gram −
[11] = tested on: Proteus vulgaris IFO 3167
[12] = tested on: P. mirabilis IID 994; conditions: 10^6 cells/ml; for ratio of activity per that of Ciprofloxacin (bracketed number): Gram −; for MIC: Proteus mirabilis, IID994, Gram −, read-out: Minimum Inhibitory Concentration
[13] = tested on: P. morganii IID 602; conditions: 10^6 cells/ml; for ratio of activity per that of Ciprofloxacin (bracketed number): Gram −; for MIC: Morganella morganii, IID602, Gram −, read-out: Minimum Inhibitory Concentration
[14] = tested on: Klebsiella pneumoniae KY 6445; conditions: 10^6 cells/ml; for ratio of activity per that of Ciprofloxacin (bracketed number): Gram −
[15] = tested on: Enterobacter cloacae IID 977; conditions: 10^6 cells/ml; for ratio of activity per that of Ciprofloxacin (bracketed number): Gram −; for MIC: IID977, Gram −, read-out: Minimum Inhibitory Concentration
[16] = tested on: Citrobacter freundii IID 976; conditions: 10^6 cells/ml; for ratio of activity per that of Ciprofloxacin (bracketed number): Gram −; for MIC: IID976, Gram −, read-out: Minimum Inhibitory Concentration
[17] = tested on: Serratia marcescens IID 618; conditions: 10^6 cells/ml; for MIC: IID618, Gram −, read-out: Minimum Inhibitory Concentration
[18] = tested on: Shigella sonnei IID 969; conditions: 10^6 cells/ml; for ratio of activity per that of Ciprofloxacin (bracketed number): Gram −
Procedure: Experiment 1. Antibacterial spectra
Antibacterial activity was determined with the standard method recommended by Japan Society of Chemotherapy.

[19] = tested on: Salmonella enteritidis IID 604; conditions: Gram −, 10^6 cells/ml; for MIC: Salmonella enterica, read-out: Minimum Inhibitory Concentration
[20] = tested on: Pseudomonas aeruginosa V-1; conditions: 10^6 cells/ml; for ratio of activity per that of Ciprofloxacin (bracketed number): Gram −; for MIC: V1, Gram −, read-out: Minimum Inhibitory Concentration
[21] = tested on: Pseudomonas aeruginosa IFO 12689; conditions: 10^6 cells/ml; for ratio of activity per that of Ciprofloxacin (bracketed number): Gram −; for MIC: IFO12689, Gram −, read-out: Minimum Inhibitory Concentration
[22] = tested on: Yersinia enterocolitica IID 981; conditions: 10^6 cells/ml; for ratio of activity per that of Ciprofloxacin (bracketed number): Gram −; for MIC: IID981, Gram −, read-out: Minimum Inhibitory Concentration
[23] = tested on: Acinetobacter anitratus IID 876; conditions: 10^6 cells/ml; for MIC: Acinetobacter calcoaceticus, IID876, Gram −, read-out: Minimum Inhibitory Concentration
[24] = tested on: Alcaligenes faecalis 0104002; conditions: Gram −, 10^6 cells/ml; for MIC: read-out: Minimum Inhibitory Concentration
[25] = tested on: Bacteroides fragilis GM 7000; conditions: 10^6 cells/ml; for MIC: GM7000, Gram −, read-out: Minimum Inhibitory Concentration; for ratio of activity per that of Ciprofloxacin (bracketed number): Gram −
[26] = tested on: Bacteroides fragilis 0558; conditions: Gram −, 10^6 cells/ml; for MIC: read-out: Minimum Inhibitory Concentration
[27] = tested on: Bacteroides fragilis 25285; conditions: Gram −, 10^6 cells/ml; for MIC: read-out: Minimum Inhibitory Concentration
[28] = Proteus vulgaris IFO 3167, Gram −, 10^6 cells/ml

CN1CCN(c2c(F)cc3c(=O)c(C(=O)O)cn(C4CC4)c3c2Cl)CC1 [Example 27, 8-Chloro-1-cyclopropyl-6-fluoro-1,4-dihydro-7-(4-methyl-l-piperazinyl)4-oxoquinoline-3-carboxylic acid]
ratio of activity per that of Ciprofloxacin (bracketed number) [1]: 4 | MIC [1]: 0.0125 µg/mL (≈ 0.0329 µM) | ratio of activity per that of Ciprofloxacin (bracketed number) [2]: 4 | MIC [2]: 0.1 µg/mL (≈ 0.263 µM) | MIC [3]: 0.1 µg/mL (≈ 0.263 µM) | ratio of activity per that of Ciprofloxacin (bracketed number) [4]: 4 | MIC [4]: 0.1 µg/mL (≈ 0.263 µM) | ratio of activity per that of Ciprofloxacin (bracketed number) [5]: 4 | MIC [5]: 0.2 µg/mL (≈ 0.527 µM) | MIC ([6]; Streptococcus pyogenes, IID689, Gram +, read-out: Minimum Inhibitory Concentration): 0.2 µg/mL (≈ 0.527 µM) | MIC [7]: 0.39 µg/mL (≈ 1.03 µM) | ratio of activity per that of Ciprofloxacin (bracketed number) [7]: 2 | MIC ([8]; Streptococcus pneumoniae, read-out: Minimum Inhibitory Concentration): 0.39 µg/mL (≈ 1.03 µM) | ratio of activity per that of Ciprofloxacin (bracketed number) [9]: 1 | MIC ([9]; Escherichia coli, NIHJJC2, read-out: Minimum Inhibitory Concentration): ≤ 0.006 µg/mL | MIC [10]: 0.0125 µg/mL (≈ 0.0329 µM) | ratio of activity per that of Ciprofloxacin (bracketed number) [10]: 1 | ratio of activity per that of Ciprofloxacin (bracketed number) [11, 28]: 0.5 | MIC ([11]; Proteus vulgaris, IFO3167, read-out: Minimum Inhibitory Concentration): 0.0125 µg/mL (≈ 0.0329 µM) | ratio of activity per that of Ciprofloxacin (bracketed number) [12]: 0.5 | MIC [12]: 0.025 µg/mL (≈ 0.0658 µM) | ratio of activity per that of Ciprofloxacin (bracketed number) [13]: 1 | MIC [13]: 0.05 µg/mL (≈ 0.132 µM) | ratio of activity per that of Ciprofloxacin (bracketed number) [14]: 0.5 | MIC ([14]; KY6445, Gram −, read-out: Minimum Inhibitory Concentration): 0.025 µg/mL (≈ 0.0658 µM) | ratio of activity per that of Ciprofloxacin (bracketed number) [15]: 1 | MIC [15]: 0.05 µg/mL (≈ 0.132 µM) | ratio of activity per that of Ciprofloxacin (bracketed number) [16]: 0.25 | MIC [16]: 0.025 µg/mL (≈ 0.0658 µM) | MIC [17]: 0.05 µg/mL (≈ 0.132 µM) | ratio of activity per that of Ciprofloxacin (bracketed number) [18]: 0.5 | MIC ([18]; IID969, Gram −, read-out: Minimum Inhibitory Concentration): 0.0125 µg/mL (≈ 0.0329 µM) | ratio of activity per that of Ciprofloxacin (bracketed number) [19]: 0.5 | MIC [19]: 0.05 µg/mL (≈ 0.132 µM) | ratio of activity per that of Ciprofloxacin (bracketed number) [20]: 1 | MIC [20]: 0.2 µg/mL (≈ 0.527 µM) | ratio of activity per that of Ciprofloxacin (bracketed number) [21]: 0.25 | MIC [21]: 1.56 µg/mL (≈ 4.11 µM) | ratio of activity per that of Ciprofloxacin (bracketed number) [22]: 1 | MIC [22]: 0.05 µg/mL (≈ 0.132 µM) | MIC [23]: 0.025 µg/mL (≈ 0.0658 µM) | ratio of activity per that of Ciprofloxacin (bracketed number) [24]: 1 | MIC [24]: 0.39 µg/mL (≈ 1.03 µM) | MIC [25]: 0.2 µg/mL (≈ 0.527 µM) | ratio of activity per that of Ciprofloxacin (bracketed number) [25]: 16 | ratio of activity per that of Ciprofloxacin (bracketed number) [26]: 32 | MIC [26]: 0.1 µg/mL (≈ 0.263 µM) | ratio of activity per that of Ciprofloxacin (bracketed number) [27]: 32 | MIC [27]: 0.1 µg/mL (≈ 0.263 µM)

O=C(O)c1cn(C2CC2)c2c(F)c(N3CCNCC3)c(F)cc2c1=O [Reference- 1, 1-Cyclopropyl-6,8-difluoro-1,4-dihydro-4-oxo-7-(1-piperazinyl)quinoline-3-carboxylic acid, reference compound]
ratio of activity per that of Ciprofloxacin (bracketed number) [1]: 2 | MIC [1]: 0.025 µg/mL (≈ 0.0716 µM) | ratio of activity per that of Ciprofloxacin (bracketed number) [2]: 2 | MIC [2]: 0.2 µg/mL (≈ 0.573 µM) | ratio of activity per that of Ciprofloxacin (bracketed number) ([3]; Gram +): 2 | MIC [3]: 0.2 µg/mL (≈ 0.573 µM) | ratio of activity per that of Ciprofloxacin (bracketed number) [4]: 2 | MIC [4]: 0.2 µg/mL (≈ 0.573 µM) | ratio of activity per that of Ciprofloxacin (bracketed number) [5]: 1 | MIC [5]: 0.78 µg/mL (≈ 2.23 µM) | ratio of activity per that of Ciprofloxacin (bracketed number) ([6]; Gram +): 1 | MIC [7]: 0.78 µg/mL (≈ 2.23 µM) | ratio of activity per that of Ciprofloxacin (bracketed number) [7]: 1 | ratio of activity per that of Ciprofloxacin (bracketed number) [8]: 2 | ratio of activity per that of Ciprofloxacin (bracketed number) [9]: 1 | MIC [10]: 0.0125 µg/mL (≈ 0.0358 µM) | ratio of activity per that of Ciprofloxacin (bracketed number) [10]: 1 | MIC ([11]; IFO3167, Proteus vulgaris IFO 3167, Gram −, 10^6 cells/ml, read-out: Minimum Inhibitory Concentration): ≤ 0.006 µg/mL | ratio of activity per that of Ciprofloxacin (bracketed number) [11, 28]: 1 | ratio of activity per that of Ciprofloxacin (bracketed number) [12]: 2 | MIC [12]: ≤ 0.006 µg/mL | ratio of activity per that of Ciprofloxacin (bracketed number) [13]: 2 | MIC [13]: 0.025 µg/mL (≈ 0.0716 µM) | ratio of activity per that of Ciprofloxacin (bracketed number) [14]: 1 | ratio of activity per that of Ciprofloxacin (bracketed number) [15]: 2 | MIC [15]: 0.025 µg/mL (≈ 0.0716 µM) | ratio of activity per that of Ciprofloxacin (bracketed number) [16]: 0.5 | MIC [16]: 0.0125 µg/mL (≈ 0.0358 µM) | ratio of activity per that of Ciprofloxacin (bracketed number) ([17]; Gram −): 4 | MIC [17]: 0.1 µg/mL (≈ 0.286 µM) | ratio of activity per that of Ciprofloxacin (bracketed number) [18]: 1 | MIC [19]: 0.0125 µg/mL (≈ 0.0358 µM) | ratio of activity per that of Ciprofloxacin (bracketed number) [20]: 1 | MIC [20]: 0.2 µg/mL (≈ 0.573 µM) | ratio of activity per that of Ciprofloxacin (bracketed number) [21]: 1 | MIC [21]: 0.39 µg/mL (≈ 1.12 µM) | ratio of activity per that of Ciprofloxacin (bracketed number) [22]: 2 | MIC [22]: 0.025 µg/mL (≈ 0.0716 µM) | MIC [23]: 0.0125 µg/mL (≈ 0.0358 µM) | ratio of activity per that of Ciprofloxacin (bracketed number) ([23]; Gram −): 2 | ratio of activity per that of Ciprofloxacin (bracketed number) [24]: 2 | MIC [24]: 0.02 µg/mL (≈ 0.0573 µM) | MIC [25]: 1.56 µg/mL (≈ 4.47 µM) | ratio of activity per that of Ciprofloxacin (bracketed number) [25]: 2 | ratio of activity per that of Ciprofloxacin (bracketed number) [26]: 4 | MIC [26]: 0.78 µg/mL (≈ 2.23 µM) | MIC [27]: 0.78 µg/mL (≈ 2.23 µM)
